Measurements reported in patent US9056842B2, “Cosmetic use of substituted amino heterocylic carbamoyl analogs and related compounds” (Avon Products, Inc., priority 2011, dated 2015).

Tested on: Human dermal fibroblasts
Test: Stimulation of collagen synthesis, procollagen type I C-peptide (PIP) EIA on conditioned medium
Assay type: cell-based
Conditions: compound at 0.0005% in DMSO, triplicate, 48-hour incubation; increase in collagen over the DMSO control
Experimental: Human dermal fibroblasts (Cascade Biologics, Portland, Oreg.) were plated at 10,000 cells/well in 96-well culture plates in supplemented medium (DMEM, 10% Fetal Bovine Serum, 1% Penicillin/Streptomycin and 1% L-Glutamine) overnight in humidified atmosphere of 10% CO2 at 37° C. […] DMSO solution was used a control. Following 48-hour incubation, the plates were removed from the incubator and the medium from each well was collected for the procollagen assay. Collagen production was measured using procollagen type I C-peptide (PIP) EIA kit (Takara Bio, Inc., Japan). […] The ELISA plate was incubated at 37° C. for 3 hours before the wells were washed four times with 400 μl of 1×PBS. At the end of wash, 100 μl of substrate solution (supplied with kit) was added to the wells and incubated at room temperature for 15 minutes. The reaction was stopped by adding 100 μl of 1N sulfuric acid to the wells. The absorbance was measured on a spectrophotometer at 450 nm wavelength. The amount of procollagen peptide in the conditioned medium was calculated from the standard curve. The stimulation of collagen production was shown as an increase in collagen over the control.

Compound | % Collagen Stimulation [%]
CCOCCCNC(=O)c1coc(CN(CCCOCC)C(=O)c2cccc(Br)c2)n1 [Compound 1] | 68.77
CCOCCCNC(=O)c1coc(CN(CCCOCC)C(=O)c2ccc(Cl)cc2)n1 [Compound 2] | 67.86
